pIC50: −log10 of the molar value.
Key:
[1] = biological target: estrogen receptor α in MCF7 cells (Homo sapiens (Human), UniProt P03372); assay: Estrogen Receptor (ER) Degradation Assay (In-Cell Western); type: cell-based; conditions: for pIC50: 24 hours, In-Cell Western; for % Estrogen Receptor Remaining: vehicle set to 100%
Protocol: A screening strategy was implemented utilizing an In-Cell Western assay to measure their ability to degrade the estrogen receptor in vitro. MCF7 cells, which are estrogen receptor positive, were plated at a cell density of […] into black walled clear bottom 96-well plates. Cells were incubated in phenol red free Dulbecco's Modified Eagle Media (DMEM) supplemented with 8% charcoal-stripped fetal bovine calf serum for 24 hours in a humidified 37° C. incubator. Concentrated stock compounds were diluted to 10× in complete media. Compounds were added to the plated cells in a dose-dependent manner ranging from 1E-12 to 1E-05 M and incubated for an additional 24 hours at 37° C. Culture medium was removed from the culture plates by gentle inversion. Cells were fixed in 4% paraformaldehyde in 1× phosphate buffered saline-calcium magnesium free (PBS-CMF) for 15 minutes at room temperature, washed 3 times for 5 minutes each in 1×PBS-CMF. Cells were permeabilized in immunofluorescence (IF) blocking buffer (Cell Signaling #12411) containing 0.3% Triton X100. Cells were washed 3 times for 5 minutes each in 1×PBS-CMF and incubated in estrogen receptor α (D6R2W) rabbit primary antibody (Cell Signaling #13258) diluted 1:300 in IF antibody dilution buffer (Cell Signaling #12378). Cells were washed 3 times for 5 minutes each in 1×PBS-CMF and stained with goat anti-rabbit (Biotium #CF770) secondary antibody diluted 1:2000 in IF antibody dilution buffer and normalizing stain CellTag 700 diluted 1:500 (Licor #926-41090). ER protein expression was assessed by the Licor Odyssey CLx imaging system using Image Studio v5.2. Data is processed utilizing GraphPad Prism 7 by subtracting background from the vehicle and setting the vehicle to 100% ER activity, followed by comparing treated samples to vehicle. This procedure was used to produce the graph in FIG. 2, FIG. 3, FIG. 4, FIG. 5, FIG. 6, FIG. 7, and FIG. 8.
(§1) In the below table for the Estrogen Receptor Degradation Assay and the Human ERα Reporter Assay: […]

[2] = biological target: human estrogen receptor (ERα) (Homo sapiens (Human), UniProt P03372); assay: Human ERα Reporter Assay (Indigo Biosciences); type: cell-based; conditions: antagonist mode, 17β-estradiol 8E-10 M, 24 hours
Protocol: All reagents used in this assay was supplied in the Human ERα Reporter Assay by Indigo Biosciences # IB00401. In an effort to screen selective estrogen receptor degraders (SERDs), the Human ERα Reporter Assay, supplied by Indigo Biosciences, was utilized to quantify antagonist functional activity against the human estrogen receptor. Reporter cells were thawed at 37° C. and added to pre-warmed to 37° C. cell recovery medium (CRM). Stock concentration of 17β-estradiol was serially diluted in CRM. Diluted 17β-estradiol was added to CRM containing reporter cells resulting in a working concentration of 1.6 nM (2×). Cells plus 17β-estradiol were dispensed in a kit-supplied white walled 96-well plate. Concentrated stocks of test compounds were diluted to 2× working concentrations in cell screening medium (CSM). 2× concentrated compounds were added to the plated cells in a dose-dependent manner resulting in a final concentration range of 1E-11 to 1E-5 M and a final 17β-estradiol concentration of 8E-10 M. Assay plates were incubated for 24 hours in a humidified 37° C. incubator. Culture medium was removed from the assay plates by inversion. Detection substrate and buffer was warmed to room temperature, mixed thoroughly, and immediately added to the assay plates. Assay plates were incubated for 15 minutes at room temperature protected from light. Luminescence was measured in a Synergy HTX luminescence plate reader. Data is processed utilizing GraphPad Prism 7 by graphing the relative light units measured at each compound concentration. This procedure was used to produce the graph in FIG. 1, FIG. 9, FIG. 10, FIG. 11, FIG. 12, FIG. 13, and FIG. 14.
as §1

Sequence of human estrogen receptor (ERα) (P03372 whole entry): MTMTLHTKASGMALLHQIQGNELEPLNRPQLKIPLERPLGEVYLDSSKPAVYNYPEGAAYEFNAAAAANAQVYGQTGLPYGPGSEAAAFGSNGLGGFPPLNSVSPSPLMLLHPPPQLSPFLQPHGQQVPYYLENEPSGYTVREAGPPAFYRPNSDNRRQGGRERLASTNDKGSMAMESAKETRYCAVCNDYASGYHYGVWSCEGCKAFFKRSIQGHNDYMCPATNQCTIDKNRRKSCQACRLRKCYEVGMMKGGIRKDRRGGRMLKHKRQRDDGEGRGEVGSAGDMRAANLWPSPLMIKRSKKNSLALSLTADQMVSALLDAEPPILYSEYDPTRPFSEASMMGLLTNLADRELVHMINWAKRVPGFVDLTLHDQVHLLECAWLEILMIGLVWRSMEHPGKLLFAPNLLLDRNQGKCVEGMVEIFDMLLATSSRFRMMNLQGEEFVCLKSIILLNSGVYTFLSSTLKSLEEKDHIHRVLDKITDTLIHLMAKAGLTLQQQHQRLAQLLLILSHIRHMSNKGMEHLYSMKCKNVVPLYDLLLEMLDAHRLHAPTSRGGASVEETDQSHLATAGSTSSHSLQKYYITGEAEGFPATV
Sequence of estrogen receptor α in MCF7 cells (P03372 whole entry): as above

Row | pIC50 [1] | pIC50 [2] | SMILES | % Estrogen Receptor Remaining [1]
1 | > 6.00 | > 6.00 | Cc1cc(F)cc(C)c1C(=O)c1sc2cc(O)ccc2c1Oc1ccc(CCNC2CCCCC2)cc1 [Compound 110, (3-(4-(2-(cyclohexylamino)ethyl)phenoxy)-6-hydroxybenzo[b]thiophen-2-yl)(4-fluoro-2,6-dimethylphenyl)methanone] | *** (*** denotes 41-70% Estrogen Receptor remaining)
2 | > 6.00 | > 6.00 | Cc1cc(F)cc(C)c1C(=O)c1sc2cc(O)ccc2c1-c1ccc(CCN2CC(CF)C2)cc1 [Compound 119, (4-fluoro-2,6-dimethylphenyl)(3-(4-(2-(3-(fluoromethyl)azetidin-1-yl)ethyl)phenyl)-6-hydroxybenzo[b]thiophen-2-yl)methanone] | *** (*** denotes 41-70% Estrogen Receptor remaining)
3 | > 6.00 | > 4.30 | Cc1cc(F)cc(C)c1C(=O)c1sc2cc(O)ccc2c1-c1ccc(OCCN2CCC(CF)C2)cc1 (stereo not drawn) [Compound 123, (4-fluoro-2,6-dimethylphenyl)(3-(4-(2-(3-(fluoromethyl)pyrrolidin-1-yl)ethoxy)phenyl)-6-hydroxybenzo[b]thiophen-2-yl)methanone] | *** (*** denotes 41-70% Estrogen Receptor remaining)
4 | > 6.00 | > 6.00 | CNCc1ccc(Oc2c(C(=O)c3c(C)cc(F)cc3C)sc3cc(O)ccc23)cc1 [Compound 113, (4-fluoro-2,6-dimethylphenyl)(6-hydroxy-3-(4-((methylamino)methyl)phenoxy)benzo[b]thiophen-2-yl)methanone] | *** (*** denotes 41-70% Estrogen Receptor remaining)

Source: US10208011B2, “Benzothiophene estrogen receptor modulators” (G1 Therapeutics, Inc., priority 2017, dated 2019)
